The values below come from patent US11446287B2, “Compounds and methods for EP300 or CBP modulation and indications therefor” (Opna Immuno-Oncology SA, priority 2019, dated 2022).

In the assay the target is T1, Recombinant human BRD4 containing dual bromodomains (BRD4-BD12 (1-477)) (Homo sapiens, UniProt O60885).
T1 construct: Recombinant human BRD4 containing dual bromodomains (BRD4-BD12 (1-477)); made in house; host or cells: E. coli BL21-CodonPlus (DE3), modified pET vector
Kind of assay: BRD4 Alphascreen binding assay. The method in brief:
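AlphaScreen proximity between Ni-chelate-bound BRD4-BD12 (1-477) and streptavidin-captured H4 K5/K8/K12/K16-acetyl peptide measured after 1 h room-temperature compound incubation and 30 min with 7.5 μg/ml beads. Buffer: 50 mM HEPES pH 7.5, 50 mM NaCl, 0.01% BSA, 0.01% Triton X-100; data plate-normalized and four-parameter fit for IC50.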

For orientation: IC50 means the point on the concentration scale where inhibition reaches its midpoint. Consider `Cc1noc(C)c1-c1cnc2c(CC3CCC3)cn(-c3c(Cl)cc(C(=O)O)cc3Cl)c2c1` [P-0074, 3,5-dichloro-4-(3-(cyclobutylmethyl)-6-(3,5-dimethylisoxazol-4-yl)-1H-pyrrolo[3,2-b]pyridin-1-yl)benzoic acid], for which the IC50 was in the range of 8 to 1000 µM.

In the case of `Cc1cc(C(=O)O)cnc1-n1cc(CC2CCC2)c2ncc(-c3c(C)noc3C)cc21` [P-0075, 6-(3-(cyclobutylmethyl)-6-(3,5-dimethylisoxazol-4-yl)-1H-pyrrolo[3,2-b]pyridin-1-yl)-5-methylnicotinic acid], the half-inhibitory concentration (IC50) was in the range of 8 to 1000 µM.

For the molecule `Cc1noc(C)c1-c1cnc2c(CC3CCC3)cn(-c3ccc(C#N)cc3)c2c1` [P-0076, 4-(3-(cyclobutylmethyl)-6-(3,5-dimethylisoxazol-4-yl)-1H-pyrrolo[3,2-b]pyridin-1-yl)benzonitrile], the IC50 lay within 8 to 1000 µM.

Consider `Cc1noc(C)c1-c1cnc2c(CC3CCC3)cn(-c3ccnc(C#N)c3)c2c1` [P-0077, 4-(3-(cyclobutylmethyl)-6-(3,5-dimethylisoxazol-4-yl)-1H-pyrrolo[3,2-b]pyridin-1-yl)picolinonitrile], for which the IC50 fell in the range of 1 to 8 µM.

Regarding `Cc1noc(C)c1-c1cnc2c(c1)c(-c1cccc(C(=O)NC#N)c1)cn2Cc1ccccc1` [P-0078, 3-(1-benzyl-5-(3,5-dimethylisoxazol-4-yl)-1H-pyrrolo[2,3-b]pyridin-3-yl)-N-cyanobenzamide], the IC50 was 1 to 8 µM.

In the case of `Cc1noc(C)c1-c1cnc2c(c1)c(-c1cccc(C(=O)NO)c1)cn2Cc1ccccc1` [P-0079, 3-(1-benzyl-5-(3,5-dimethylisoxazol-4-yl)-1H-pyrrolo[2,3-b]pyridin-3-yl)-N-hydroxybenzamide], the half-maximal inhibitory concentration (IC50) is 1 to 8 µM.

For `Cc1noc(C)c1-c1cnc2c(c1)c(-c1ccc(C(=O)O)cc1)cn2C(C)c1ccccn1` (centres unmarked) [P-0080, 4-(5-(3,5-dimethylisoxazol-4-yl)-1-(1-(pyridin-2-yl)ethyl)-1H-pyrrolo[2,3-b]pyridin-3-yl)benzoic acid], the IC50 was 1 to 8 µM.

Take `Cc1noc(C)c1-c1cnc2c(c1)c(-c1cccc(S(N)(=O)=O)c1)cn2Cc1ccccc1` [P-0081, 3-(1-benzyl-5-(3,5-dimethylisoxazol-4-yl)-1H-pyrrolo[2,3-b]pyridin-3-yl)benzenesulfonamide]: the half-maximal inhibitory concentration (IC50) was 1 to 8 µM.

As for `CNS(=O)(=O)c1cccc(-c2cn(Cc3ccccc3)c3ncc(-c4c(C)noc4C)cc23)c1` [P-0082, 3-(1-benzyl-5-(3,5-dimethylisoxazol-4-yl)-1H-pyrrolo[2,3-b]pyridin-3-yl)-N-methylbenzenesulfonamide], the 50% inhibitory concentration (IC50) was 1 to 8 µM.

`Cc1noc(C)c1-c1cnc2c(c1)c(-c1cccc(S(=O)(=O)NC3CC3)c1)cn2Cc1ccccc1` [P-0083, 3-(1-benzyl-5-(3,5-dimethylisoxazol-4-yl)-1H-pyrrolo[2,3-b]pyridin-3-yl)-N-cyclopropylbenzenesulfonamide]: the IC50 is 1 to 8 µM.

For the molecule `Cc1noc(C)c1-c1cnc2c(C(=O)C3CC3)c(O)n(-c3ccnc(C(=O)O)c3)c2c1` [P-0084, 4-(3-(cyclopropanecarbonyl)-6-(3,5-dimethylisoxazol-4-yl)-2-hydroxy-1H-pyrrolo[3,2-b]pyridin-1-yl)picolinic acid], the IC50 lay in the range of 0.0001 to 1 µM.

Take `Cc1noc(C)c1-c1cnc2c(c1)c(-c1cccc(C(=O)O)c1)cn2C(=O)c1ccccc1` [P-0085, 3-(1-benzoyl-5-(3,5-dimethylisoxazol-4-yl)-1H-pyrrolo[2,3-b]pyridin-3-yl)benzoic acid]: the IC50 was in the range of 8 to 1000 µM.

Regarding `Cc1noc(C)c1-c1cnc2c(CC3CCC3)cn(-c3c(C(=O)O)ccc(Br)c3F)c2c1` [P-0086, 4-bromo-2-(3-(cyclobutylmethyl)-6-(3,5-dimethylisoxazol-4-yl)-1H-pyrrolo[3,2-b]pyridin-1-yl)-3-fluorobenzoic acid], the IC50 lay in the range of 1 to 8 µM.

`COc1c(-n2cc(CC3CCC3)c3ncc(-c4c(C)noc4C)cc32)ccc(C(=O)O)c1F` [P-0087, 4-(3-(cyclobutylmethyl)-6-(3,5-dimethylisoxazol-4-yl)-1H-pyrrolo[3,2-b]pyridin-1-yl)-2-fluoro-3-methoxybenzoic acid]: the concentration for half-maximal inhibition (IC50) lay in the range of 1 to 8 µM.

For the molecule `Cc1noc(C)c1-c1cnc2c(C(=O)c3cccc(Cl)c3)cn(-c3ccnc(C(=O)O)c3)c2c1` [P-0088, 4-(3-(3-chlorobenzoyl)-6-(3,5-dimethylisoxazol-4-yl)-1H-pyrrolo[3,2-b]pyridin-1-yl)picolinic acid], the IC50 fell in the range of 1 to 8 µM.

For the molecule `Cc1noc(C)c1-c1cnc2c(C(=O)c3ccccc3Cl)cn(-c3ccnc(C(=O)O)c3)c2c1` [P-0089, 4-(3-(2-chlorobenzoyl)-6-(3,5-dimethylisoxazol-4-yl)-1H-pyrrolo[3,2-b]pyridin-1-yl)picolinic acid], the 50% inhibitory concentration (IC50) fell in the range of 1 to 8 µM.

On to `Cc1noc(C)c1-c1cnc2c(Cc3cccc(Cl)c3)cn(-c3ccnc(C(=O)O)c3)c2c1` [P-0090, 4-(3-(3-chlorobenzyl)-6-(3,5-dimethylisoxazol-4-yl)-1H-pyrrolo[3,2-b]pyridin-1-yl)picolinic acid], for which the IC50 lay in the range of 0.0001 to 1 µM.

As to `Cc1noc(C)c1-c1cnc2c(Cc3ccccc3Cl)cn(-c3ccnc(C(=O)O)c3)c2c1` [P-0091, 4-(3-(2-chlorobenzyl)-6-(3,5-dimethylisoxazol-4-yl)-1H-pyrrolo[3,2-b]pyridin-1-yl)picolinic acid], the IC50 was 1 to 8 µM.

On to `Cc1noc(C)c1-c1cnc2c(c1)c(-c1cccc(C(=O)NS(C)(=O)=O)c1)cn2Cc1ccccc1` [P-0092, 3-(1-benzyl-5-(3,5-dimethylisoxazol-4-yl)-1H-pyrrolo[2,3-b]pyridin-3-yl)-N-(methylsulfonyl)benzamide], for which the concentration for half-maximal inhibition (IC50) was in the range of 1 to 8 µM.

For the molecule `Cc1noc(C)c1-c1cnc2c(c1)c(C1=CCC(C(=O)O)CC1)cn2Cc1ccccc1` (centres unmarked) [P-0093, 4-(1-benzyl-5-(3,5-dimethylisoxazol-4-yl)-1H-pyrrolo[2,3-b]pyridin-3-yl)cyclohex-3-ene-1-carboxylic acid], the IC50 fell in the range of 1 to 8 µM.

With `Cc1noc(C)c1-c1cnc2c(c1)c(-c1c(F)cc(C(=O)O)cc1F)cn2C(C)c1ccccn1` (centres unmarked) [P-0094, 4-(5-(3,5-dimethylisoxazol-4-yl)-1-(1-(pyridin-2-yl)ethyl)-1H-pyrrolo[2,3-b]pyridin-3-yl)-3,5-difluorobenzoic acid], the IC50 is 8 to 1000 µM.

For the molecule `Cc1noc(C)c1-c1cnc2c(c1)c(-c1c(Cl)cc(C(=O)O)cc1Cl)cn2C(C)c1ccccn1` (centres unmarked) [P-0095, 3,5-dichloro-4-(5-(3,5-dimethylisoxazol-4-yl)-1-(1-(pyridin-2-yl)ethyl)-1H-pyrrolo[2,3-b]pyridin-3-yl)benzoic acid], the IC50 lay in the range of 1 to 8 µM.

With `Cc1noc(C)c1-c1cnc2c(c1)c(-c1c(F)ccc(NS(C)(=O)=O)c1F)cn2C(C)c1ccccn1` (centres unmarked) [P-0096, N-(3-(5-(3,5-dimethylisoxazol-4-yl)-1-(1-(pyridin-2-yl)ethyl)-1H-pyrrolo[2,3-b]pyridin-3-yl)-2,4-difluorophenyl)methanesulfonamide], the concentration for half-maximal inhibition (IC50) lay in the range of 1 to 8 µM.
